Results published in ChEMBL document CHEMBL1155624, “Steroidal glycosides from the aerial parts of Polianthes tuberosa” (J Nat Prod, 2000).
Values after ≈ are worked out from the molar mass of the structure shown.

System: HL-60
Experiment: Cytotoxicity against human HL60 cells by MTT reduction assay
Assay type: functional, cell-based

Structure (SMILES)	IC50
CC1CC[C@@]2(OC1)O[C@H]1C[C@H]3[C@@H]4CC[C@H]5C[C@@H](O[C@@H]6O[C@H](CO)[C@H](O[C@@H]7O[C@H](CO)[C@@H](O)[C@H](O[C@@H]8OC[C@@H](O)[C@H](O)[C@H]8O)[C@H]7O[C@@H]7O[C@H](CO)[C@@H](O)[C@H](O[C@@H]8OC[C@@H](O)[C@H](O)[C@H]8O)[C@H]7O)[C@H](O)[C@H]6O)CC[C@]5(C)C4=CC(=O)[C@]3(C)[C@H]1[C@@H]2C (some centres undefined)	6.1 µg/mL (≈ 5.17 µM)
CC(C)CC[C@H](O)[C@@H](C)[C@H]1[C@@H](O[C@@H]2OC[C@](O)(CO)[C@H]2O)C[C@H]2[C@@H]3CC=C4C[C@@H](O)C[C@@H](O[C@@H]5O[C@H](CO)[C@@H](O)[C@H](O)[C@H]5O)[C@]4(C)[C@H]3CC[C@]12C	> 10 µg/mL
CC1CC[C@@]2(OC1)O[C@H]1C[C@H]3[C@@H]4C[C@H](O)[C@H]5C[C@@H](O[C@@H]6O[C@H](CO)[C@H](O[C@@H]7O[C@H](CO)[C@@H](O)[C@H](O[C@@H]8OC[C@@H](O)[C@H](O)[C@H]8O)[C@H]7O[C@@H]7O[C@H](CO)[C@@H](O)[C@H](O[C@@H]8OC[C@@H](O)[C@H](O)[C@H]8O)[C@H]7O)[C@H](O)[C@H]6O)CC[C@]5(C)[C@H]4CC[C@]3(C)[C@H]1[C@@H]2C (some centres undefined)	2.6 µg/mL (≈ 2.2 µM)
CC1CC[C@@]2(OC1)O[C@H]1C[C@H]3[C@@H]4CC[C@H]5C[C@@H](O[C@@H]6O[C@H](CO)[C@H](O[C@@H]7O[C@H](CO)[C@@H](O)[C@H](O[C@@H]8OC[C@@H](O)[C@H](O)[C@H]8O)[C@H]7O[C@@H]7O[C@H](CO)[C@@H](O)[C@H](O[C@@H]8OC[C@@H](O)[C@H](O)[C@H]8O)[C@H]7O)[C@H](O)[C@H]6O)CC[C@]5(C)[C@H]4CC(=O)[C@]3(C)[C@H]1[C@@H]2C (some centres undefined)	3.2 µg/mL (≈ 2.71 µM)
